Measurements: patent US9725434B2, “Hydroxy-substituted orexin receptor antagonists” (MERCK SHARP & DOHME CORP., priority 2013, dated 2017)

How the values were obtained:
[1] = target: human orexin-2 receptor (hOX2R) (Homo sapiens (Human), UniProt O43614); assay: FLIPR Ca2+ Flux Assay, hOX2R; type: cell-based; settings: CHO cells expressing hOX2R; agonist 70 pM Ala-6,12 orexin-A
Protocol: In a typical experiment the OX1 and OX2 receptor antagonistic activity of the compounds of the present invention was determined in accordance with the following experimental method. For intracellular calcium measurements, Chinese hamster ovary (CHO) cells expressing the rat orexin-1 receptor or the human orexin-2 receptor, are grown in Iscove's modified DMEM containing 2 mM L-glutamine, […], 1% hypoxanthine-thymidine supplement, 100 U/ml penicillin, 100 μg/ml streptomycin and 10% heat-inactivated fetal calf serum (FCS). The cells are seeded at 20,000 cells/well into Becton-Dickinson black 384-well clear bottom sterile plates coated with poly-D-lysine. All reagents were from GIBCO-Invitrogen Corp. The seeded plates are incubated overnight at 37° C. and 5% CO2. Ala-6,12 human orexin-A as the agonist is prepared as a 1 mM stock solution in 1% bovine serum albumin (BSA) and diluted in assay buffer (HBSS containing 20 mM HEPES, 0.1% BSA and 2.5 mM probenecid, pH7.4) for use in the assay at a final concentration of 70 pM. Test compounds are prepared as 10 mM stock solution in DMSO, then diluted in 384-well plates, first in DMSO, then assay buffer. On the day of the assay, cells are washed 3 times with 100 μl assay buffer and then incubated for 60 min (37° C., 5% CO2) in 60 μl assay buffer containing 1 μM Fluo-4AM ester, 0.02% pluronic acid, and 1% BSA. The dye loading solution is then aspirated and cells are washed 3 times with 100 μl assay buffer. 30 μl of that same buffer is left in each well. Within the Fluorescent Imaging Plate Reader (FLIPR, Molecular Devices), test compounds are added to the plate in a volume of 25 μl, incubated for 5 min and finally 25 μl of agonist is added. Fluorescence is measured for each well at 1 second intervals for 5 minutes and the height of each fluorescence peak is compared to the height of the fluorescence peak induced by 70 pM Ala-6,12 orexin-A with buffer in place of antagonist. […] Alternatively, compound potency can be assessed by a radioligand binding assay (described in Bergman et. al. Bioorg. Med. Chem. Lett. 2008, 18, 1425-1430) in which the inhibition constant (Ki) is determined in membranes prepared from CHO cells expressing either the OX1 or OX2 receptor. The intrinsic orexin receptor antagonist activity of a compound which may be used in the present invention may be determined by these assays.
(§1) Chinese hamster ovary (CHO) cells expressing the human orexin-1 receptor (hOX1R) or the human orexin-2 receptor (hOX2R) were grown in Iscove's modified DMEM containing 2 mM L-glutamine, […], 1% hypoxanthine-thymidine supplement, 100 U/ml penicillin, 100 μg/ml streptomycin and 10% heat-inactivated fetal calf serum (FCS). The cells were seeded at 20,000 cells/well into Becton-Dickinson black 384-well clear bottom sterile plates coated with poly-D-lysine. All reagents were from GIBCO-Invitrogen Corp. The seeded plates were incubated overnight at 37° C. and 5% CO2. Ala-6,12 human orexin-A, used as the agonist, was prepared as a 1 mM stock solution in 1% bovine serum albumin (BSA) and diluted in assay buffer (HBSS containing 20 mM HEPES, 0.1% BSA and 2.5 mM probenecid, pH7.4) for use in the assay at a final concentration of 70 pM. Test compounds were prepared as 10 mM stock solution in DMSO, then diluted in 384-well plates, first in DMSO, then assay buffer.
On the day of the assay, cells were washed 3× with 100 μl assay buffer and then incubated for 60 minutes (37° C., 5% CO2) in 60 μl assay buffer containing 1 μM Fluo-4AM ester, 0.02% pluronic acid, and 1% BSA. The dye loading solution was then aspirated and cells were washed 3× with 100 μl assay buffer.

[2] = target: human orexin-1 receptor (hOX1R) (Homo sapiens, UniProt O43613); assay: FLIPR Ca2+ Flux Assay, hOX1R; type: cell-based; settings: CHO cells expressing hOX1R; agonist 70 pM Ala-6,12 orexin-A
Protocol: as §1
On the day of the assay, cells were washed 3× with 100 μl assay buffer and then incubated for 60 minutes (37° C., 5% CO2) in 60 μl assay buffer containing 1 μM Fluo-4AM ester, 0.02% pluronic acid, and 1% BSA. The dye loading solution was then aspirated and cells were washed 3× with 100 μl assay buffer. 30 μl of that same buffer was left in each well. Within the Fluorescent Imaging Plate Reader (FLIPR, Molecular Devices), test compounds were added to the plate in a volume of 25 μl, incubated for 5 minutes, and then 25 μl of agonist was added. Fluorescence was measured for each well at 1 second intervals for 5 minutes, and the height of each fluorescence peak was compared to the height of the fluorescence peak induced by 70 pM of Ala-6,12 orexin-A with buffer in place of test compound.

Chain of human orexin-2 receptor (hOX2R) (O43614 whole entry): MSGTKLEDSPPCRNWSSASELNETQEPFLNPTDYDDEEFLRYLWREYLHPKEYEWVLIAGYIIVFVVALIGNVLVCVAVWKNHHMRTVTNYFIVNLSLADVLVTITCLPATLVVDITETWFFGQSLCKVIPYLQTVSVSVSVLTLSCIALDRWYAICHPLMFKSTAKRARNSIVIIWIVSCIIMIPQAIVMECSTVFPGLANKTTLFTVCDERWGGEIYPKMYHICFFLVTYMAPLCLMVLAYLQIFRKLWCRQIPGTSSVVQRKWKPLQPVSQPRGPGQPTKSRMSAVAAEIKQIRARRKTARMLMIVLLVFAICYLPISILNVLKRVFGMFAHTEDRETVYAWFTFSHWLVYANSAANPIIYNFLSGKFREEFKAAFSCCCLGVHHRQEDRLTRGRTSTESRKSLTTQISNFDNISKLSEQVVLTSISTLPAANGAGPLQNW

C[C@@H]1CC[C@@H](Oc2cccc(C(C)(O)C3CCCC3)c2)CN1C(=O)c1ccccc1-n1nccn1 (stereo partly drawn) [Example 16, 1-Cyclopentyl-1-(3-{[(3R,6R)-6-methyl-1-{[2-(2H-1,2,3-triazol-2-yl)phenyl]carbonyl}-piperidin-3-yl]oxy}phenyl)ethanol]
IC50 [1]: 86 nM
IC50 [2]: 3420 nM

C[C@@H]1CC[C@@H](Oc2cccc3c2CCC[C@]3(C)O)CN1C(=O)c1ccccc1-n1nccn1 [Example 30, (1S)-1-methyl-5-{[(3R,6R)-6-methyl-1-{[2-(2H-1,2,3-triazol-2-yl)phenyl]carbonyl}piperidin-3-yl]oxy}-1,2,3,4-tetrahydronaphthalen-1-ol]
IC50 [1]: 20 nM
IC50 [2]: 289 nM

(1R)-6-{[(3R,6R)-6-Methyl-1-{[2-(2H-1,2,3-triazol-2-yl)phenyl]carbonyl}piperidin-3-yl]oxy}-2,3-dihydro-1H-inden-1-ol [Example 27]
IC50 [2]: 1340 nM

C[C@@H]1CC[C@@H](Oc2nccc(C(C)(C)O)c2F)CN1C(=O)c1ccccc1-n1nccn1 [Example 21, 2-(3-Fluoro-2-{[(3R,6R)-6-methyl-1-{[2-(2H-1,2,3-triazol-2-yl)phenyl]carbonyl}piperidin-3-yl]oxy}pyridin-4-yl)propan-2-ol]
IC50 [1]: 6 nM
IC50 [2]: 259 nM

C[C@@H]1CC[C@@H](Oc2cccc(C(C)(C)O)c2)CN1C(=O)c1ccsc1-n1nccn1 [Example 37, 2-(3-{[(3R,6R)-6-Methyl-1-{[2-(2H-1,2,3-triazol-2-yl)thiophen-3-yl]carbonyl}piperidin-3-yl]oxy}phenyl)propan-2-ol]
IC50 [1]: 45 nM
IC50 [2]: 10000 nM

C[C@@H]1CC[C@@H](Oc2cc(C3(O)CCC3)ccn2)CN1C(=O)c1ccccc1-n1nccn1 [Example 8, 1-(2-{[(3R,6R)-6-methyl-1-{[2-(2H-1,2,3-triazol-2-yl)phenyl]carbonyl}piperidin-3-yl]oxy}pyridin-4-yl)cyclobutanol]
IC50 [1]: 41 nM
IC50 [2]: 1520 nM

C[C@@H]1CC[C@@H](Oc2cc([C@@](C)(O)C3CC3)ccn2)CN1C(=O)c1ccccc1-n1nccn1 [Example 12, (1S)-1-cyclopropyl-1-(2-{[(3R,6R)-6-methyl-1-{[2-(2H-1,2,3-triazol-2-yl)phenyl]carbonyl}piperidin-3-yl]oxy}pyridin-4-yl)ethanol]
IC50 [1]: 13 nM
IC50 [2]: 241 nM

CCC(C)(O)c1cccc(O[C@@H]2CC[C@@H](C)N(C(=O)c3ccccc3-n3nccn3)C2)c1 (stereo partly drawn) [Example 18, 2-(3-{[(3R,6R)-6-Methyl-1-{[2-(2H-1,2,3-triazol-2-yl)phenyl]carbonyl}piperidin-3-yl]oxy}phenyl)butan-2-ol]
IC50 [1]: 24 nM
IC50 [2]: 827 nM

C[C@@H]1CC[C@@H](Oc2cccc3c2CCC[C@@]3(C)O)CN1C(=O)c1ccccc1-n1nccn1 [Example 29, (1R)-1-Methyl-5-{[(3R,6R)-6-methyl-1-{[2-(2H-1,2,3-triazol-2-yl)phenyl]carbonyl}piperidin-3-yl]oxy}-1,2,3,4-tetrahydronaphthalen-1-ol]
IC50 [1]: 123 nM
IC50 [2]: 10000 nM

C[C@@H]1CC[C@@H](Oc2cc(C(C)(C)O)ccn2)CN1C(=O)c1ccccc1-n1nccn1 [Example 4, 2-(2-{[(3R,6R)-6-Methyl-1-{[2-(2H-1,2,3-triazol-2-yl)phenyl]carbonyl}piperidin-3-yl]oxy}pyridin-4-yl)propan-2-ol]
IC50 [1]: 20 nM
IC50 [2]: 996 nM

C[C@@H]1CC[C@@H](Oc2cc(C(C)(C)O)ccc2F)CN1C(=O)c1ccccc1-n1nccn1 [Example 20, 2-(4-Fluoro-3-{[(3R,6R)-6-methyl-1-{[2-(2H-1,2,3-triazol-2-yl)phenyl]carbonyl}piperidin-3-yl]oxy}phenyl)propan-2-ol]
IC50 [1]: 354 nM
IC50 [2]: 10000 nM

(1S)-1-Methyl-6-{[(3R,6R)-6-methyl-1-{[2-(2H-1,2,3-triazol-2-yl)phenyl]carbonyl}piperidin-3-yl]oxy}-2,3-dihydro-1H-inden-1-ol [Example 35]
IC50 [1]: 164 nM
IC50 [2]: 3350 nM

C[C@@H]1CC[C@@H](Oc2cccc(C(C)(O)C3CCC3)c2)CN1C(=O)c1ccccc1-n1nccn1 (stereo partly drawn) [Example 17, 1-Cyclobutyl-1-(3-{[(3R,6R)-6-methyl-1-{[2-(2H-1,2,3-triazol-2-yl)phenyl]carbonyl}piperidin-3-yl]oxy}phenyl)ethanol]
IC50 [1]: 82 nM
IC50 [2]: 8690 nM

C[C@@H]1CC[C@@H](Oc2cccc(C(C)(C)O)c2)CN1C(=O)c1ccccc1-n1nccn1 [Example 6, 2-(3-{[(3R,6R)-6-Methyl-1-{[2-(2H-1,2,3-triazol-2-yl)phenyl]carbonyl}piperidin-3-yl]oxy}phenyl)propan-2-ol]
IC50 [1]: 32 nM
IC50 [2]: 10000 nM

C[C@@H]1CC[C@@H](Oc2cccc3c2CC[C@@H]3O)CN1C(=O)c1ccccc1-n1nccn1 [Example 26, (1S)-4-{[(3R,6R)-6-Methyl-1-{[2-(2H-1,2,3-triazol-2-yl)phenyl]carbonyl}piperidin-3-yl]oxy}-2,3-dihydro-1H-inden-1-ol]
IC50 [1]: 25 nM
IC50 [2]: 1530 nM

C[C@@H]1CC[C@@H](Oc2cccc3c2CC[C@H]3O)CN1C(=O)c1ccccc1-n1nccn1 [Example 25, (1R)-4-{[(3R,6R)-6-Methyl-1-{[2-(2H-1,2,3-triazol-2-yl)phenyl]carbonyl}piperidin-3-yl]oxy}-2,3-dihydro-1H-inden-1-ol]
IC50 [1]: 238 nM
IC50 [2]: 7200 nM

(1S)-6-{[(3R,6R)-6-Methyl-1-{[2-(2H-1,2,3-triazol-2-yl)phenyl]carbonyl}piperidin-3-yl]oxy}-2,3-dihydro-1H-inden-1-ol [Example 28]
IC50 [2]: 10000 nM

C[C@@H]1CC[C@@H](Oc2ccc3c(c2)C(O)CC3)CN1C(=O)c1ccccc1-n1nccn1 (stereo partly drawn) [Example 24, 6-{[(3R,6R)-6-Methyl-1-{[2-(2H-1,2,3-triazol-2-yl)phenyl]carbonyl}piperidin-3-yl]oxy}-2,3-dihydro-1H-inden-1-ol]
IC50 [2]: 2070 nM

CCC(C)(O)c1ccnc(O[C@@H]2CC[C@@H](C)N(C(=O)c3ccccc3-n3nccn3)C2)c1 (stereo partly drawn) [Example 9, 2-(2-{[(3R,6R)-6-Methyl-1-{[2-(2H-1,2,3-triazol-2-yl)phenyl]carbonyl}piperidin-3-yl]oxy}pyridin-4-yl)butan-2-ol]
IC50 [1]: 14 nM
IC50 [2]: 436 nM

C[C@@H]1CC[C@@H](Oc2cccc(C(C)(O)C(F)(F)F)c2)CN1C(=O)c1ccccc1-n1nccn1 (stereo partly drawn) [Example 5, 1,1,1-Trifluoro-2-(3-{[(3R,6R)-6-methyl-1-{[2-(2H-1,2,3-triazol-2-yl)phenyl]carbonyl}piperidin-3-yl]oxy}phenyl)propan-2-ol]
IC50 [1]: 89 nM
IC50 [2]: 5540 nM

C[C@@H]1CC[C@@H](Oc2cccc(C(C)(O)C(F)F)c2)CN1C(=O)c1ccccc1-n1nccn1 (stereo partly drawn) [Example 36, 1,1-difluoro-2-(3-{[(3R,6R)-6-methyl-1-{[2-(2H-1,2,3-triazol-2-yl)phenyl]carbonyl}piperidin-3-yl]oxy}phenyl)propan-2-ol]
IC50 [1]: 18 nM
IC50 [2]: 7280 nM
